This passage reports Kd and IC50 results from US20060014812A1, “Use of estrogen related receptor-modulating aryl ethers” (priority 2004, published 2006).

The target of assay [1] is T1, ligand binding domain of ERR-α (aa 183-424) (Homo sapiens, UniProt P11474).
T1 construct: His tag (N); thrombin cleavage site (N); made in house; host or cells: E. coli BL21(DE3+)
T1 sequence (P11474 183-423 limits assumed): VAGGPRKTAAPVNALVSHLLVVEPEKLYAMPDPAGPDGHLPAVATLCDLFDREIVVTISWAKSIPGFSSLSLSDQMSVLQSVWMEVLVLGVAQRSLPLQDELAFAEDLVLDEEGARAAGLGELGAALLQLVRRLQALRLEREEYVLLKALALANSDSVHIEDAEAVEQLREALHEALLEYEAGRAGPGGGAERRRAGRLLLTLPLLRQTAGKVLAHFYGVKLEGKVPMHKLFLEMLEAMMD
Nature of the assay: ThermoFluor thermal-shift binding affinity screen against ERR-α ligand binding domain. The following applies: 100 μM test compound, 0.1 mg/mL ERR-α, pH 7.6, Kd estimated from melting temperature shift at reference temperature, read-out: TF Kd. The method, then:
The ligand binding domain of ERR-α (aa 183-424) was subcloned in frame with the N-terminal His tag and the cleavable thrombin site in pET28. The protein was expressed in BL21(DE3^+) following induction with 100 μM IPTG at 16° C. Cells were harvested after 16 hours (h) of induction and lysed in 20 mM Tris pH 7.5, 500 mM NaCl, 5 mM imidazole, 5% glycerol, protease inhibitor cocktail (-EDTA) and 2 mM β-ME. Insoluble material was removed by centrifugation at 40,000×g for 1 hr. Clarified homogenate was applied on a Ni-NTA column and after applying an imidazole gradient the protein was eluted. The protein was further purified on size exclusion chromatography to an apparent homogeneity of 95% as judged by SDS-PAGE chromatography.
Binding affinities of compounds were determined by screening against the ligand binding domain of ERR-α using ThermoFluor® technology (U.S. Pat. No. 6,020,141 and U.S. Pat. No. 6,036,920, and Journal of Biomolecular Screening 6 (6), […], pgs 429-440). Assay plates were prepared by dispensing 2 μL of a protein-dye solution and 2 μL of the test compound in a 384-well plate. The conditions used in the screen were: 0.1 mg/mL ERR-α, 25 mM Na-phosphate buffer at pH 7.6, 200 mM NaCl, 10% glycerol, 16 μM ANS, 2% DMSO and the final concentration of test compound was 100 μM. Finally 1 μL of mineral oil was dispensed on top to prevent evaporation during the high throughput screen (HTS). ThermoFluor® is an HTS assay that measures protein unfolding based on fluorescence detection of the denatured form of the protein. The reporter for the protein unfolding event is the environmentally sensitive dye ANS that is incorporated in the screening buffer. During a typical experiment the 384-well plate is heated at a ramping rate of 1° C./min and the thermal unfolding of the protein is monitored at 1° C. intervals by measuring fluorescence changes detected through a CCD camera. Captured images are integrated and a melting curve is generated that relates fluorescence to fraction of unfolded protein as a function of temperature. For the ERR-α screen, data were collected from 30 to 80° C. at 1° C. intervals and the protein melted under the screening conditions with a characteristic melting temperature, Tm, of 52.1° C. Hits were identified from the screen by measuring an increase in the melting temperature of the protein.
In order to estimate binding affinities, it was taken into account that the oligomeric state of ERR-α, which is a dimer (N2), and that of a single ligand (Lf) can interact per monomer subunit with equal affinity. The melting curve for such a system is described by the following three equilibria: [formula] The first equilibrium describes the denaturation of ERR-α dimers; the second equilibrium describes the dissociation of the first ligand from the single ligand occupied ERR-α dimers (N2L); and the third equilibrium describes the dissociation of the second ligand from the fully occupied ERR-α dimers (N2L2).
Following the derivations of Brandts and Lin (Biochemistry, 29, 6967, 1990) the dissociation constants for the ligands (Kd1^t^m) can be determined at T=Tm for any ligand concentration Lt by solving numerically the conservation of mass equations: [formula] and Ku is in the unfolding equilibrium constant for ERR-α dimers that is calculated from the melting curve of the protein in the absence of ligand as described by Pantoliano et al. (J. Biomolecular Screening, 6, 429, 2001) and Bowie & Sauer (Biochemistry, 28, 7139, 1989).
To compare dissociation constants at a common reference temperature, Tref, the following equation was used: [formula] where • Kd^ref=is the dissociation constant of the ligand at a reference temperature Tref • ΔHb^ref=is the binding enthalpy of the ligand to the protein at a reference temperature Tref. […]

The next assay concerns the target T2, ERR-α (Homo sapiens, UniProt P11474).
T2 construct: expressed in transfected cells; host or cells: HEK293E
T2 sequence (P11474 1-423): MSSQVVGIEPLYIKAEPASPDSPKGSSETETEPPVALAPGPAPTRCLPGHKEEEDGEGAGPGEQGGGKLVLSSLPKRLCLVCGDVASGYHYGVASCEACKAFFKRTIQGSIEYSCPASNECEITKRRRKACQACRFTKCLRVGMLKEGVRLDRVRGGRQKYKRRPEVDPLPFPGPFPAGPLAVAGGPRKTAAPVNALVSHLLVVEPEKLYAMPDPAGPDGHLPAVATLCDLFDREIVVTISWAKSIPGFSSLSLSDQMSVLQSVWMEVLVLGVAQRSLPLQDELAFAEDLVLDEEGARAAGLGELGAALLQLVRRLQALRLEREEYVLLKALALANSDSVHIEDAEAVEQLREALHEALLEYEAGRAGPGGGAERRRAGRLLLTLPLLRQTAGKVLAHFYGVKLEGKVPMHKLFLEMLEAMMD
Nature of the assay: 2-Hybrid cell based luciferase reporter assay (pBIND-Gal4-ERR-α / pACT-SRC2) in HEK293E cells. The following applies: 24 hours compound treatment, firefly luciferase normalized to Renilla, average from three independent experiments. The method, then: A cell based reporter assay was also used to determine the functional response of the ERR-α hits. Transfections were performed in HEK293E cells that were maintained in DMEM supplemented in glutamine and 10% FBS. Co-transfections of 4 μg of a luciferase reporter plasmid and 4 μg of each pBIND-Gal4-ERR-α and pACT-SRC2 plasmids per T-75 flask were done using Lipofectamine as per manufacturers instructions. Twenty-four hours post-transfection, the cells were seeded in 96-well plates at density of 50,000 cells per well in assay media (DMEM phenol free, 5% charcoal stripped FBS). The cells were allowed to adhere to the bottom of the wells (approximately 5 hours post-seeding) and the compounds were dosed and the final concentration of DMSO was kept below 0.3%. After 24 hours of compound treatment cells were lysed and treated with the Promega Dual-Glo system. Firefly Luciferase activity was read using a luminescence plate reader, and data were normalized against Renilla luciferase activity. Data were fitted using subroutines available from GraphPad. The reported IC50 values shown in the table below are the average from three independent experiments for the compounds tested.
A general note: Reporter assays use an easily measured gene product as a stand-in for the process of interest.

pIC50, pKd: −log10 of the molar value.

`N#C/C(=C\c1ccc(Oc2ccc(C(F)(F)F)cc2[N+](=O)[O-])cc1)c1nn(-c2ccccc2)c(N)c1C#N` [Example 2, 5-Amino-3-{1-cyano-2-[4-(2-nitro-4-trifluoromethyl-phenoxy)-phenyl]-vinyl}-1-phenyl-1H-pyrazole-4-carbonitrile]: in assay [1], the pKd was 5.11. The compound further had a pIC50 at ERR-α of 5.11. For `COc1cc(/C=C2\SC(=O)NC2=O)ccc1Oc1ccc([N+](=O)[O-])c(C(F)(F)F)c1` [Example 11, 5-[3-Methoxy-4-(4-nitro-3-trifluoromethyl-phenoxy)-benzylidene]-thiazolidine-2,4-dione], in assay [1], the pKd is 6.28. Moreover, on ERR-α, the pIC50 is 6.00. For `COc1cc(/C=C2\SC(N)=NC2=O)ccc1Oc1ccc(C(F)(F)F)cc1[N+](=O)[O-]` [Example 7, 2-Amino-5-[3-methoxy-4-(2-nitro-4-trifluoromethyl-phenoxy)-benzylidene]-thiazol-4-one] the same measures were 6.44 and 6.30. For `COc1cc(/C=C2\SC(N)=NC2=O)ccc1Oc1ccc(C#N)c(C(F)(F)F)c1` [Example 8, 4-[4-(2-Amino-4-oxo-4H-thiazol-5-ylidenemethyl)-2-methoxy-phenoxy]-2-trifluoromethyl-benzonitrile] the same measures were 6.33 and 6.85. For `N#C/C(=C\c1ccc(Oc2ccccc2)cc1)c1nn(-c2ccccc2)c(N)c1C#N` [Example 5, 5-Amino-3-[1-cyano-2-(4-phenoxy-phenyl)-vinyl]-1-phenyl-1H-pyrazole-4-carbonitrile] the same measures were 4.59 and 4.59.

`COc1cc(/C=C(\C#N)c2nn(-c3ccccc3)c(N)c2C#N)ccc1Oc1ccc(C#N)c(C(F)(F)F)c1` [Example 4, 5-Amino-3-{1-cyano-2-[4-(4-cyano-3-trifluoromethyl-phenoxy)-3-methoxy-phenyl]-vinyl}-1-phenyl-1H-pyrazole-4-carbonitrile]: the pKd in assay [1] is 5.84. On ERR-α, this compound showed a pIC50 of 5.84. Consider `COc1cc(/C=C2\SC(=O)NC2=O)ccc1Oc1ccc(C#N)c(C(F)(F)F)c1` [Example 12, 4-[4-(2,4-Dioxo-thiazolidin-5-ylidenemethyl)-2-methoxy-phenoxy]-2-trifluoromethyl-benzonitrile], for which the pKd in assay [1] is 6.33. On ERR-α, this compound had a negative logarithm of the IC50 (pIC50) of 7.30. For `COc1cc(/C=C(\C#N)c2nn(-c3ccccc3)c(N)c2C#N)ccc1Oc1ccc(C(F)(F)F)cc1[N+](=O)[O-]` [Example 1, 5-Amino-3-{1-cyano-2-[3-methoxy-4-(2-nitro-4-trifluoromethyl-phenoxy)-phenyl]vinyl}-1-phenyl-1H-pyrazole-4-carbonitrile] the same measures were 5.22 and 5.22.

Regarding `COc1cc(/C=C(\C#N)c2nn(-c3ccccc3)c(N)c2C#N)ccc1Oc1ccc([N+](=O)[O-])c(C(F)(F)F)c1` [Example 3, 5-Amino-3-{1-cyano-2-[3-methoxy-4-(4-nitro-3-trifluoromethyl-phenoxy)-phenyl]-vinyl}-1-phenyl-1H-pyrazole-4-carbonitrile], the pKd in assay [1] is 5.77. The compound further gave a pIC50 on ERR-α of 5.77.

As to `COC(=O)c1ccc(Oc2ccc(/C=C3\SC(=O)NC3=O)cc2OC)cc1C(F)(F)F` [Example 15, 4-[4-(2,4-Dioxo-thiazolidin-5-ylidenemethyl)-2-methoxy-phenoxy]-2-trifluoromethyl-benzoic acid methyl ester], in assay [1], the pKd was 6.94. In addition, at ERR-α, the pIC50 was 5.82.

Consider `COc1cc(/C=C(\C#N)S(=O)(=O)c2ccccc2)ccc1Oc1ccc(C(F)(F)F)cc1[N+](=O)[O-]` [Example 23, 2-Benzenesulfonyl-3-[3-methoxy-4-(2-nitro-4-trifluoromethyl-phenoxy)-phenyl]-acrylonitrile], for which the pKd in assay [1] is 4.84.

The term pKd denotes the Kd on a negative log10 scale, so that one unit is a factor of ten. A word on the pIC50: it is the IC50 on a negative log10 scale, so that one unit is a factor of ten. A low value points to a high IC50.
